Experimental findings from ChEMBL document CHEMBL1138893, “Modulators of the human CCR5 receptor. Part 3: SAR of substituted 1-[3-(4-methanesulfonylphenyl)-3-phenylpropyl]-piperidinyl phenylacetamides” (Bioorg Med Chem Lett, 2006) are described below.

Data set [1] concerns the target C-C chemokine receptor type 5 (Homo sapiens, UniProt P51681). Nature of the data set: biochemical.
Description: Displacement of [125I]MIP-1-alpha to human recombinant CCR5 expressed in CHO cells
The nature of data set [2]: in vivo. As to conditions: rat, iv.
Description: Clearance in rat at 1-2 mg/kg, iv
Data set [3] is described as follows: in vivo. As to conditions: rat, iv. The source holds these as a separate data set.
A short description of data set [4]: in vivo. As to conditions: rat, iv. This is another data set of the same source.
Description: Half life in rat at 1-2 mg/kg, iv

Chain of C-C chemokine receptor type 5 (P51681 whole entry): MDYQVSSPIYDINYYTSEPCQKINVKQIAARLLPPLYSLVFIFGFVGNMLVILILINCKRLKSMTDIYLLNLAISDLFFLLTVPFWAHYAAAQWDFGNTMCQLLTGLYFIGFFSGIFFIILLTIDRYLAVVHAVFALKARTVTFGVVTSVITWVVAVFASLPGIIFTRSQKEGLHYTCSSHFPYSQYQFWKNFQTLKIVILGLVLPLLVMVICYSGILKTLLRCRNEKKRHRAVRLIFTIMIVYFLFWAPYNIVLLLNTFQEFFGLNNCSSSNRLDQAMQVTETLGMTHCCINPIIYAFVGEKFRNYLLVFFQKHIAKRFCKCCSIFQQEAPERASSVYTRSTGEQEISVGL

With `CCN(C(=O)Cc1ccc(S(C)(=O)=O)cc1)C1CCN(CC[C@H](c2ccc(S(C)(=O)=O)cc2)c2cccc(C#N)c2)CC1`, the half-inhibitory concentration (IC50) in data set [1] turned out to be 56 nM.

The compound `CCN(C(=O)Cc1ccc(S(C)(=O)=O)cc1)C1CCN(CCC(c2ccc(F)cc2)c2ccc(F)cc2)CC1` gave a clearance in the data set “in vivo [2]” of 10 mL/min/kg. In “in vivo [3]”, this compound had a distribution volume (Vd) of 1.7 L/kg. Moreover, the half-life in “in vivo [4]” was 144 min.

In the case of `C=CCN(C(=O)Cc1ccc(S(C)(=O)=O)cc1)C1CCN(CCC(c2ccccc2)c2ccccc2)CC1`, the clearance in “in vivo [2]” is 54 mL/min/kg. This compound gave a distribution volume (Vd) in “in vivo [3]” of 2.7 L/kg. In the data set “in vivo [4]”, this compound showed a half-life of 54 min.

In data set [1], `CCN(C(=O)Cc1ccc(S(C)(=O)=O)cc1)C1CCN(CC[C@H](c2ccc(S(C)(=O)=O)cc2)c2cccc(C(C)(C)C)c2)CC1` returned an IC50 of 500 nM.
